Data taken from US20250275537A1, “CARBOXAMIDE APYRASE INHIBITORS” (Texas Crop Science, Inc., priority 2024, published 2025).

Assays:
[1] = test system: Brown Rust (Puccinia recondita) on wheat; test: Greenhouse crop test: Brown Rust on wheat in combination with commercial fungicides (Method 3); assay type: in vivo; settings: evaluated at fourteen days
Experimental: In this method, exemplary compounds were evaluated for their ability to control Brown Rust (Puccinia recondita) on wheat, in a controlled greenhouse environment in combination with one of four fungicides, Amistar, Imtrex, Proline or Balaya. In these studies, JB Diego wheat plants were used. Seeds were sown in 9 cm diameter pots to a depth of 1 to 2 cm using Petersfield potting compost (75% medium grade peat, 12% screened sterilized loam, 3% medium grade vermiculite, 10% grit (5 mm screened, lime free), 1.5 kg PG mix per m3, lime to pH5.5-6.0 and wetting agent (Vitax Ultrawet 200 ml per m3) and germinated/grown at 23 C under a 16 h day/8 h night light regime. Plants were treated two to three weeks after sowing when they were at the BBCH 11 growth stage (first pair of true leaves (unifoliate) unfolded). Plants were inoculated with the Puccinia triticina (Brown rust on wheat plants) 24 hours after treatment. A track sprayer was used to treat the plants with the mixture of commercial fungicide and test compound using a water volume of 200 L/ha. […] Each plant was evaluated at fourteen days (once the disease symptoms were fully expressed) for % control of the disease. […] Also, each commercial fungicide was tested on its own as a part of each treatment, this being benchmark against which the experimental compounds were evaluated. […]

apyrase = test: Apyrase inhibition assay (Method 1); assay type: biochemical; settings: inhibitor conc at 1 mM stock, 10 μl per well; 1 hr room temperature; rounded average of at least two assay results
Experimental: Apyrase inhibitors useful as enhancers of pesticidal activity are assessed using an in vitro assay. The method of Windsor, Bio Techniques 33:1024-1030 (November 2002) was used as follows
96 well plates were used for the assay: (Greiner bio-one: REF-655901-96 well, PS, F-bottom, Clear, Non-binding)
• Reaction Buffer: 60 mM Hepes, 3 mM MgCl2, 3 mM CaCl2 and 3 mM ATP (pH 6.5) • Development Buffer A: 2% aqueous ammonium molybdate • Development Buffer B: 11% ascorbic acid in 37.5% TCA in water • Stop buffer C: 2% trisodium citrate in 2% acetic acid solution in water • Add 100 μl of reaction buffer to each well. • Add 10 μl of DMSO (control) or inhibitor/compound or compounds such as N1915 or orthovanadate to each well. (use inhibitor conc at 1 mM; orthovanadate at 2 mM and N1915 at 1 mM) • Add 10 μl of apyrase (concentration based on optimization —Dilute 1 U/μl enzyme to different concentrations such as 0.1U, 0.05U, 0.0025, 0.001U, 0.0005U—to find a good range) • Incubate plate at room temperature for 1 hr • Mix development buffer A and B in the ratio of 1:1.5 (just before use). • Add 50 ul of A:B mix in each well (incubate for 2 mins) • Add 50 ul of C in each well • Measure/Read Absorbance of plate @630 nm
Inhibitory data for the apyrase assay described above are provided for selected compounds in Table 3. In Table 3, D indicates inhibition of <10%.
With reference to Table 3, percent inhibition of apyrase is reported as the rounded average of at least two assay results.

[2] = test system: Amaranthus retroflexus (pigweed); test: Enhancement of herbicide activity: pre-emergence Amaranthus kill with metribuzin (Method 4); assay type: in vivo; settings: enhancer at 100 g/ha; for enhancement of metribuzin herbicidal activity: at seven and fourteen days
From the text: Small amounts of acetone were used to aid solubility. The pots were watered immediately after sowing and treatment and then allowed to stand in a glasshouse. Assessment of kill was made seven and fourteen days after treatment. The test included four replicates for each treatment and the control.

[3] = test system: strain of Zymoseptoria tritici with a reduced susceptibility to SDHI fungicides; test: In vitro assessment of combination activity with fungicides (Method 2), Z. tritici SDHI-reduced-susceptibility strain; assay type: cell-based; settings: any fungicide (azoxystrobin, fluxapyroxad, desthio prothioconazole)
Experimental: (§1) Selected compounds are assessed in combination with fungicides against a range of commercially important plant pathogenic fungi.
(§2) The test is conducted as follows. A fungicide is applied to a fungal plant pathogen at a rate slightly below that at which it gave any control, in combination with a suitable dose of the test compound. The test compound is recorded as active if control of the pathogen is observed.
(§3) In more detail, the test is conducted as follows. For each combination of fungicide, pathogen and test compound, the following wells are used. Well 1 contains a fungal pathogen growing on agar, and a fungicide at a rate just below that at which it gives any control of the pathogen. Well 2 is the same as Well 1, except that the test compound is also added at Rate 1. Well 3 is the same as Well 2, except that the test compound is added at Rate 2, where Rate 2 was higher than Rate 1. Finally, as a benchmark. Well 4 is the same as Well 1, except that it contains the fungicide at a higher rate, at which it gives partial control of the pathogen. Each of the Wells 1 to 4 are run in duplicate, giving a total of 8 wells for each combination of fungicide, pathogen and test compound. For each well, after a suitable period of incubation, a visual assessment of the % control of the pathogen by the fungicide is made. […]

[4] = test system: strain of Zymoseptoria tritici with a reduced susceptibility to strobilurin fungicides; test: In vitro assessment of combination activity with fungicides (Method 2), Z. tritici strobilurin-reduced-susceptibility strain; assay type: cell-based; settings: any fungicide (azoxystrobin, fluxapyroxad, desthio prothioconazole)
Experimental: as §1, §2, §3

Microdochium nivale = test: In vitro assessment of combination activity with fungicides (Method 2), Microdochium nivale; assay type: cell-based; settings: in combination with azoxystrobin; visual % control on agar
Experimental: as §1, §2, §3

[5] = Assessed 7 DAT, metribuzin rate 50 g/ha
[6] = Assessed 7 DAT, metribuzin rate 100 g/ha
[7] = Assessed 7 DAT, metribuzin rate 200 g/ha
[8] = Assessed 14 DAT, metribuzin rate 50 g/ha
[9] = Assessed 14 DAT, metribuzin rate 100 g/ha
[10] = Assessed 14 DAT, metribuzin rate 200 g/ha

| SMILES | additional Brown Rust control in combination with Balaya over Balaya alone ([1]; Balaya 0.25 L/ha) | % Inhibition of Apyrase (apyrase) | Pre-Emergence Amaranthus Kill Percentage [2, 5] | Pre-Emergence Amaranthus Kill Percentage [2, 6] | Pre-Emergence Amaranthus Kill Percentage [2, 7] | Pre-Emergence Amaranthus Kill Percentage [2, 8] | Pre-Emergence Amaranthus Kill Percentage [2, 9] | Pre-Emergence Amaranthus Kill Percentage [2, 10] | enhancement of metribuzin herbicidal activity [2] | enhancement of fungicide activity (combination activity) [3] | enhancement of fungicide activity (combination activity) [4] | enhancement of fungicide activity (combination activity) (Microdochium nivale) | additional Brown Rust disease control in combination with Amistar over Amistar alone ([1]; Amistar 0.04 L/ha) |
| --- | --- | --- | --- | --- | --- | --- | --- | --- | --- | --- | --- | --- | --- |
| O=C(Nc1ccccc1)c1ccc(C(=O)Nc2ccccc2)cc1 [Compound I-3, N^1,N^4-diphenylterephthalamide] | measurable additional Brown Rust control | A (A indicates inhibition above 30%) |  |  |  |  |  |  |  |  |  |  |  |
| COCc1cc(F)ccc1NC(=O)c1cccc(C(=O)Nc2ccc(F)cc2COC)c1 [Compound I-63, N^1,N^3-bis(4-fluoro-2-(methoxymethyl)phenyl)isophthalamide] |  | A (A indicates inhibition above 30%) | 2.0% | 34.0% | 96.3% | 4.1% | 34.0% | 98.2% | significant enhancement |  |  |  |  |
| O=C(Nc1ccccc1Cl)c1ccccc1C(=O)Nc1ccccc1Cl [Compound I-14, N^1,N^2-bis(2-chloropheny)phthalamide] |  | A (A indicates inhibition above 30%) | 21.3% | 93.9% | 98.0% | 32.7% | 94.0% | 100.0% | significant enhancement |  |  |  |  |
| O=C(Nc1cccc([N+](=O)[O-])c1)c1cccc(S(=O)(=O)Nc2ccc(Br)cc2)c1 [Roux Compound 13] |  |  |  |  |  |  |  |  |  | failing to enhance activity of any fungicide | failing to enhance activity of any fungicide | enhancing the activity of azoxystrobin |  |
| O=C(c1ccc(C(=O)N2CCc3ccccc32)cc1)N1CCc2ccccc21 [Compound I-66, 1,4-phenylenebis(indolin-1-ylmethanone)] |  | A (A indicates inhibition above 30%) |  |  |  |  |  |  |  |  |  |  | greater than 20% |
